#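 The concentration for 50% growth inhibition is given as GI50. Definition used: TGI = concentration required for complete inhibition of growth.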
# What was measured:
# Experiment in all cases: inhibition of tumour cell growth, NCI panel, 384-well format
# HCC-2998 colon = tested on: HCC-2998 colon
# HCT-15 colon = tested on: HCT-15 colon
# HOP-92 NSCLC = tested on: HOP-92 NSCLC
# NCI-H522 lung = tested on: NCI-H522 lung
# SF-539 CNS = tested on: SF-539 CNS
# K-562 leukemia = tested on: K-562 leukemia
# OVCAR-3 ovarian = tested on: OVCAR-3 ovarian
# U251 glioblastoma = tested on: U251 glioblastoma
# A498 renal = tested on: A498 renal
# OVCAR-8 ovarian = tested on: OVCAR-8 ovarian
# HT29 colon = tested on: HT29 colon
# HL-60(TB) leukemia = tested on: HL-60(TB) leukemia
# RPMI-8226 leukemia = tested on: RPMI-8226 leukemia
# NCI-H460 NSCLC = tested on: NCI-H460 NSCLC
# SF-295 CNS = tested on: SF-295 CNS
# SN12C renal = tested on: SN12C renal
# KM12 colon = tested on: KM12 colon
# M14 melanoma = tested on: M14 melanoma
# NCI-H322M lung = tested on: NCI-H322M lung
# NCI-H226 lung = tested on: NCI-H226 lung
# SK-MEL-5 melanoma = tested on: SK-MEL-5 melanoma
# SNB-19 CNS = tested on: SNB-19 CNS
# OVCAR-5 ovarian = tested on: OVCAR-5 ovarian
# IGROV1 ovarian = tested on: IGROV1 ovarian
# SW-620 colon = tested on: SW-620 colon
# CAKI-1 renal = tested on: CAKI-1 renal
# RXF 393 renal = tested on: RXF 393 renal
# PC-3 prostate = tested on: PC-3 prostate
# SF-268 CNS = tested on: SF-268 CNS
# MALME-3M melanoma = tested on: MALME-3M melanoma
# OVCAR-4 ovarian = tested on: OVCAR-4 ovarian
# SNB-75 CNS = tested on: SNB-75 CNS
# BT-549 breast = tested on: BT-549 breast
# SK-MEL-28 melanoma = tested on: SK-MEL-28 melanoma
# TK-10 renal = tested on: TK-10 renal
# 786-0 renal = tested on: 786-0 renal
# CCRF-CEM leukemia = tested on: CCRF-CEM leukemia
# HS 578T breast = tested on: HS 578T breast
# T-47D breast = tested on: T-47D breast
# DU-145 prostate = tested on: DU-145 prostate
# A549 NSCLC = tested on: A549 NSCLC
# UACC-62 melanoma = tested on: UACC-62 melanoma
# MCF7 breast = tested on: MCF7 breast
# ACHN renal = tested on: ACHN renal
# MDA-MB-468 breast = tested on: MDA-MB-468 breast
# HCT-116 colon = tested on: HCT-116 colon
# MOLT-4 leukemia = tested on: MOLT-4 leukemia
# UACC-257 melanoma = tested on: UACC-257 melanoma
# EKVX NSCLC = tested on: EKVX NSCLC
# MDA-MB-435 melanoma = tested on: MDA-MB-435 melanoma
# HOP-62 NSCLC = tested on: HOP-62 NSCLC
# MDA-MB-231 breast = tested on: MDA-MB-231 breast
# NCI-H23 lung = tested on: NCI-H23 lung
# LOX IMVI melanoma = tested on: LOX IMVI melanoma
# NCI/ADR-RES ovarian = tested on: NCI/ADR-RES ovarian
# SK-OV-3 ovarian = tested on: SK-OV-3 ovarian
# UO-31 renal = tested on: UO-31 renal
structure (smiles),measurement,setting,value
O=C(NCCN1CCOCC1)Nc1nc2ccc(Sc3nnc4ccc(-c5ccc(F)cc5)nn34)cc2s1,GI50,HCC-2998 colon,5.29 µM
same,TGI,HCC-2998 colon,34.7 µM
same,GI50,HCT-15 colon,70.6 µM
same,TGI,HCT-15 colon,> 100 µM
same,GI50,HOP-92 NSCLC,5.22 µM
same,TGI,HOP-92 NSCLC,> 100 µM
same,GI50,NCI-H522 lung,17.7 µM
same,TGI,NCI-H522 lung,> 100 µM
same,GI50,SF-539 CNS,4.86 µM
same,TGI,SF-539 CNS,> 100 µM
same,GI50,K-562 leukemia,3.98 µM
same,TGI,K-562 leukemia,21.2 µM
same,GI50,OVCAR-3 ovarian,> 100 µM
same,TGI,OVCAR-3 ovarian,> 100 µM
same,GI50,U251 glioblastoma,7.1 µM
same,TGI,U251 glioblastoma,60.7 µM
same,GI50,A498 renal,6.7 µM
same,TGI,A498 renal,> 100 µM
same,GI50,OVCAR-8 ovarian,> 100 µM
same,TGI,OVCAR-8 ovarian,> 100 µM
same,GI50,HT29 colon,4.93 µM
same,TGI,HT29 colon,53.3 µM
same,GI50,HL-60(TB) leukemia,4.25 µM
same,TGI,HL-60(TB) leukemia,8.46 µM
same,GI50,RPMI-8226 leukemia,1.18 µM
same,TGI,RPMI-8226 leukemia,2.58 µM
same,GI50,NCI-H460 NSCLC,5 µM
same,TGI,NCI-H460 NSCLC,> 100 µM
same,GI50,SF-295 CNS,2.34 µM
same,TGI,SF-295 CNS,14.3 µM
same,GI50,SN12C renal,> 100 µM
same,TGI,SN12C renal,> 100 µM
same,GI50,KM12 colon,0.452 µM
same,TGI,KM12 colon,> 100 µM
same,GI50,M14 melanoma,> 100 µM
same,TGI,M14 melanoma,> 100 µM
same,GI50,NCI-H322M lung,42.9 µM
same,TGI,NCI-H322M lung,> 100 µM
same,GI50,NCI-H226 lung,3.04 µM
same,TGI,NCI-H226 lung,> 100 µM
same,GI50,SK-MEL-5 melanoma,3.52 µM
same,TGI,SK-MEL-5 melanoma,47 µM
same,GI50,SNB-19 CNS,5.14 µM
same,TGI,SNB-19 CNS,> 100 µM
same,GI50,OVCAR-5 ovarian,> 100 µM
same,TGI,OVCAR-5 ovarian,> 100 µM
same,GI50,IGROV1 ovarian,> 100 µM
same,TGI,IGROV1 ovarian,> 100 µM
same,GI50,SW-620 colon,> 100 µM
same,TGI,SW-620 colon,> 100 µM
same,GI50,CAKI-1 renal,22.6 µM
same,TGI,CAKI-1 renal,> 100 µM
same,GI50,RXF 393 renal,0.606 µM
same,TGI,RXF 393 renal,2.18 µM
same,GI50,PC-3 prostate,> 100 µM
same,TGI,PC-3 prostate,> 100 µM
same,GI50,SF-268 CNS,2.71 µM
same,TGI,SF-268 CNS,7 µM
same,GI50,MALME-3M melanoma,3.77 µM
same,TGI,MALME-3M melanoma,13.3 µM
same,GI50,OVCAR-4 ovarian,> 100 µM
same,TGI,OVCAR-4 ovarian,> 100 µM
same,GI50,SNB-75 CNS,3.2 µM
same,TGI,SNB-75 CNS,> 100 µM
same,GI50,BT-549 breast,2.85 µM
same,TGI,BT-549 breast,> 100 µM
same,GI50,SK-MEL-28 melanoma,3 µM
same,TGI,SK-MEL-28 melanoma,7.53 µM
same,GI50,TK-10 renal,> 100 µM
same,TGI,TK-10 renal,> 100 µM
same,GI50,786-0 renal,1.61 µM
same,TGI,786-0 renal,3.83 µM
same,GI50,CCRF-CEM leukemia,4.41 µM
same,TGI,CCRF-CEM leukemia,> 100 µM
same,GI50,HS 578T breast,2.31 µM
same,TGI,HS 578T breast,5.35 µM
same,GI50,T-47D breast,3.1 µM
same,TGI,T-47D breast,32.5 µM
same,GI50,DU-145 prostate,> 100 µM
same,TGI,DU-145 prostate,> 100 µM
same,GI50,A549 NSCLC,> 100 µM
same,TGI,A549 NSCLC,> 100 µM
same,GI50,UACC-62 melanoma,4.58 µM
same,TGI,UACC-62 melanoma,42.3 µM
same,GI50,MCF7 breast,5.39 µM
same,TGI,MCF7 breast,> 100 µM
same,GI50,ACHN renal,> 100 µM
same,TGI,ACHN renal,> 100 µM
same,GI50,MDA-MB-468 breast,2.93 µM
same,TGI,MDA-MB-468 breast,8.45 µM
same,GI50,HCT-116 colon,77 µM
same,TGI,HCT-116 colon,> 100 µM
same,GI50,MOLT-4 leukemia,1.74 µM
same,TGI,MOLT-4 leukemia,3.53 µM
same,GI50,UACC-257 melanoma,4.3 µM
same,TGI,UACC-257 melanoma,> 100 µM
same,GI50,EKVX NSCLC,84 µM
same,TGI,EKVX NSCLC,> 100 µM
same,GI50,MDA-MB-435 melanoma,> 100 µM
same,TGI,MDA-MB-435 melanoma,> 100 µM
same,GI50,HOP-62 NSCLC,7.49 µM
same,TGI,HOP-62 NSCLC,> 100 µM
same,GI50,MDA-MB-231 breast,3.73 µM
same,TGI,MDA-MB-231 breast,> 100 µM
same,GI50,NCI-H23 lung,13 µM
same,TGI,NCI-H23 lung,> 100 µM
same,GI50,LOX IMVI melanoma,20.7 µM
same,TGI,LOX IMVI melanoma,> 100 µM
same,GI50,NCI/ADR-RES ovarian,> 100 µM
same,TGI,NCI/ADR-RES ovarian,> 100 µM
same,GI50,SK-OV-3 ovarian,> 100 µM
same,TGI,SK-OV-3 ovarian,> 100 µM
same,GI50,UO-31 renal,> 100 µM
same,TGI,UO-31 renal,> 100 µM
CS(=O)(=O)OCCCCOS(C)(=O)=O,GI50,HL-60(TB) leukemia,17.7 µM
same,GI50,MOLT-4 leukemia,9.66 µM
same,TGI,MOLT-4 leukemia,21.8 µM

# — PubChem BioAssay (NCI)
